Test results: the supplement of paper PMC10307832

Tests used:
Assay in all cases: relative viability (nuclei count vs DMSO), 5 days (fraction); higher = more cells survive
XMD14-99 + Tozasertib = compound: CN1CCN(CC1)C2=CC(=C(C=C2)NC3=NC(=C(S3)C(=O)C4=C(C=CC=C4Cl)Cl)N)OC [XMD14-99] + Cc1cc(Nc2cc(N3CCN(C)CC3)nc(Sc3ccc(NC(=O)C4CC4)cc3)n2)n[nH]1 [Tozasertib] (partner 0.1 µM)
Method in brief: (§1)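 Each reported value is a median over duplicate plates. It expresses relative viability: treated-well nuclei count divided by vehicle-well nuclei count. Lung cancer cell lines in 1536-well plates were dosed by pin tool a day after seeding, alone with one drug or with a fixed anchor-drug dose plus five library-drug doses (not always all listed) in √10 steps, and nuclei were counted after 5 days.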

AZD1208 + Bortezomib = compound: N[C@@H]1CCCN(c2c(/C=C3\SC(=O)NC3=O)cccc2-c2ccccc2)C1 [AZD1208] + CC(C)C[C@H](NC(=O)[C@H](Cc1ccccc1)NC(=O)c1cnccn1)B(O)O [Bortezomib] (partner 0.002 µM)
Method in brief: as §1

AZD1208 + Lapatinib = compound: N[C@@H]1CCCN(c2c(/C=C3\SC(=O)NC3=O)cccc2-c2ccccc2)C1 [AZD1208] + CS(=O)(=O)CCNCc1ccc(-c2ccc3ncnc(Nc4ccc(OCc5cccc(F)c5)c(Cl)c4)c3c2)o1 [Lapatinib] (partner 2 µM)
Method in brief: as §1

XMD14-99 + Phenformin = compound: CN1CCN(CC1)C2=CC(=C(C=C2)NC3=NC(=C(S3)C(=O)C4=C(C=CC=C4Cl)Cl)N)OC [XMD14-99] + N=C(N)NC(=N)NCCc1ccccc1 [Phenformin] (partner 250 µM)
Method in brief: as §1

Cell Line | relative viability (XMD14-99 + Tozasertib; first compound 0.08 µM) | relative viability (XMD14-99 + Tozasertib; first compound 0.8 µM) | relative viability (XMD14-99 + Tozasertib; first compound 2.53 µM) | relative viability (XMD14-99 + Tozasertib; first compound 8 µM) | relative viability (AZD1208 + Bortezomib; first compound 0.08 µM) | relative viability (AZD1208 + Bortezomib; first compound 0.253 µM) | relative viability (AZD1208 + Bortezomib; first compound 0.8 µM) | relative viability (AZD1208 + Bortezomib; first compound 2.53 µM) | relative viability (AZD1208 + Bortezomib; first compound 8 µM) | relative viability (AZD1208 + Lapatinib; first compound 0.08 µM) | relative viability (AZD1208 + Lapatinib; first compound 0.253 µM) | relative viability (AZD1208 + Lapatinib; first compound 0.8 µM) | relative viability (AZD1208 + Lapatinib; first compound 2.53 µM) | relative viability (AZD1208 + Lapatinib; first compound 8 µM) | relative viability (XMD14-99 + Phenformin; first compound 0.08 µM) | relative viability (XMD14-99 + Phenformin; first compound 0.8 µM) | relative viability (XMD14-99 + Phenformin; first compound 2.53 µM) | relative viability (XMD14-99 + Phenformin; first compound 8 µM)
NCI-H3122 | 0.407 | 0.314 | 0.295 | 0.179 | 1.02 | 1.04 | 1.04 | 1.06 | 1.06 | 1.08 | 0.984 | 1 | 1.05 | 1.15 | 0.372 | 0.361 | 0.291 | 0.237
PC-3 [JPC-3] | 0.889 | 0.828 | 0.789 | 0.705 | 0.833 | 0.972 | 0.887 | 0.927 | 0.855 | 0.424 | 0.412 | 0.451 | 0.413 | 0.389 | 0.494 | 0.505 | 0.517 | 0.47
PC-14 | 0.584 | 0.572 | 0.599 | 0.368 | 0.963 | 0.954 | 0.848 | 1.01 | 0.907 | 0.298 | 0.417 | 0.295 | 0.327 | 0.317 | 0.639 | 0.644 | 0.517 | 0.308
RERF-LC-KJ | 0.507 | 0.464 | 0.408 | 0.374 | 1.1 | 1.21 | 1.06 | 1 | 0.818 | 0.819 | 0.896 | 0.698 | 0.679 | 0.562 | 0.425 | 0.45 | 0.375 | 0.388
SK-LU-1 | 0.34 | 0.298 | 0.355 | 0.254 | 1.36 | 1.24 | 1.09 | 0.996 | 0.812 | 0.802 | 0.864 | 0.826 | 0.831 | 0.839 | 0.523 | 0.563 | 0.456 | 0.322
SW 1573 | 0.168 | 0.286 | 0.198 | 0.21 | 0.963 | 1.14 | 0.935 | 0.907 | 0.717 | 1.02 | 1.07 | 0.959 | 1.01 | 1.05 | 0.357 | 0.386 | 0.413 | 0.363
